# Reference: patent US20100160267A1, “Treatment of Inflammatory Bowel Disease With 2-Methylene-19-Nor-Vitamin D Compounds” (WISCONSIN ALUMNI RESEARCH FOUNDATION, priority 2003, published 2010)
# Marks after values point to notes of the source that are not given here.
# Tests used:
# IL-10 KO mice = test: Colitis development in vitamin D deficient IL-10 KO mice, compound given in the diet; type: in vivo, mice (C57BL/6); settings: 2-MP 720 ng/d; for Incidence (# with colitis/n): incidence defined as SI/BW % of greater than 6.5, vitamin D deficient for 5 weeks, then in the diet for the remainder of 9-10 weeks: 1,25(OH)2D3 5 ng/d; for Incidence (# with colitis/n) / SI/BW (small intestine weight / body weight, all mice in the group): 2-MD 0.12 ng/d; for SI/BW (small intestine weight / body weight, all mice in the group): wildtype C57BL/6 values are 5-6, in the diet: 1,25(OH)2D3 5 ng/d; for Development of colitis symptoms (in words): IL-10 KO mice, 2-MD 0.12 ng/d in the diet
# Description: Recently a number of transgenic animals have been developed in which IBD symptoms occur spontaneously. One of the best animal models for Crohn's disease is the IL-10 knockout (KO) mouse (Kuhn et al. 1993, Mac Donald 1994). In conventional animal facilities, the IL-10 KO mice develop enterocolitis within 5-8 weeks of life (Kuhn et al. 1993). Approximately 30% of the IL-10 KO mice die following the development of severe anemia and weight loss (Kuhn et al. 1993). […] In addition mice raised in specific pathogen free facilities develop milder disease which doesn't result in the death of the mice (Kuhn et al. 1993). There are limitations involved in studying IL-10 KO mice as a model of IBD. If vitamin D is a regulator of IL-10 production then the results in this animal model may not represent […] what may happen in a “normal” immune response. However patients with Crohn's disease show similar symptoms, have depressed IL-10 production, and have been successfully treated with IL-10 (Narula et al. 1998).
# (§1) Vitamin D deficient IL-10 KO mice were randomly distributed into one of 4 groups. Controls remained vitamin D deficient for the entire 9-10 weeks of the experiment. Mice treated with 1α,25-dihydroxyvitamin D3 (hereinafter “1,25(OH)2D3”) were vitamin D deficient for 5 weeks and then received 5 ng/d in the diet for the remainder of the experiment. 2-MP treated mice were vitamin D deficient for 5 weeks and then received 720 ng/d in the diet for the remainder of the experiment. 2-MD treated mice were vitamin D deficient for 5 weeks and then received 0.12 ng/d in the diet for the remainder of the experiment. VDR KO IL10KO mice were bred with VDR KO mice and the double IL10/VDR KO mice are compared here.
# [1] = Serum calcium and body weight of treated vitamin D deficient IL-10 KO mice; type: in vivo, mice (C57BL/6); settings: in the diet: 1,25(OH)2D3 5 ng/d, 2-MP 720 ng/d, 2-MD 0.12 ng/d
# Procedure: as §1
# IL-10 knock-out mice = settings: cited from earlier work
compound,measurement,setting,value
"C=C1/C(=C\C=C2/CCC[C@]3(C)[C@@H]([C@H](C)CCCC(C)(C)O)CC[C@@H]23)C[C@@H](O)C[C@@H]1O [1,25(OH)2D3, 1α,25-dihydroxyvitamin D3, reference compound]",Incidence (# with colitis/n),IL-10 KO mice,1/28^c
same,"SI/BW (small intestine weight / body weight, all mice in the group)",IL-10 KO mice,5.8 ± 0.3^b %
same,BW (body weight),[1],20.8 ± 0.5^c g
same,Serum Calcium,[1],8.9 ± 0.3^a mg %
same,Prevention of IBD (in words),IL-10 knock-out mice,can prevent IBD
"C=C1[C@H](O)CC(=C/C=C2\CCC[C@]3(C)C([C@@H](C)CCCC(C)(C)O)CC[C@@]23C)C[C@H]1O (stereo partly drawn) [2-MD, 2-methylene-19-nor-20(S)-1α,25-dihydroxyvitamin D3]",Development of colitis symptoms (in words),IL-10 KO mice,effective at inhibiting and/or preventing the development of colitis symptoms
same,Incidence (# with colitis/n),IL-10 KO mice,0/9^c
same,"SI/BW (small intestine weight / body weight, all mice in the group)",IL-10 KO mice,5.3 ± 0.1^b %
same,BW (body weight),[1],20.8 ± 1.0^c g
"C=C1[C@H](O)CC(=C/C=C2\CCC[C@]3(C)C(C(C)C)CC[C@@]23C)C[C@H]1O (stereo partly drawn) [2-MP, 1α-hydroxy-2-methylene-19-nor-homopregnacalciferol]",Development of colitis symptoms (in words),IL-10 KO mice,effective at inhibiting and/or preventing the development of colitis symptoms
same,Incidence (# with colitis/n),IL-10 KO mice,0/8^c
same,"SI/BW (small intestine weight / body weight, all mice in the group)",IL-10 KO mice,5.4 ± 0.3^b %
same,BW (body weight),[1],20.2 ± 0.5^c g
